Measurements taken from paper PMC8586955, “Interaction Study between ESIPT Fluorescent Lipophile-Based Benzazoles and BSA” (Molecules, 2021).

Target: T1, bovine serum albumin (BSA) (Bos taurus, UniProt P02769)
T1 construct: gene ALB
Assay: BSA intrinsic fluorescence quenching titration, ex […] nm
Format: binding
Conditions: double-log; PBS pH 7.2, 25 °C, BSA 11 µM, ligand 0-20 µM

T1 sequence (P02769 25-607): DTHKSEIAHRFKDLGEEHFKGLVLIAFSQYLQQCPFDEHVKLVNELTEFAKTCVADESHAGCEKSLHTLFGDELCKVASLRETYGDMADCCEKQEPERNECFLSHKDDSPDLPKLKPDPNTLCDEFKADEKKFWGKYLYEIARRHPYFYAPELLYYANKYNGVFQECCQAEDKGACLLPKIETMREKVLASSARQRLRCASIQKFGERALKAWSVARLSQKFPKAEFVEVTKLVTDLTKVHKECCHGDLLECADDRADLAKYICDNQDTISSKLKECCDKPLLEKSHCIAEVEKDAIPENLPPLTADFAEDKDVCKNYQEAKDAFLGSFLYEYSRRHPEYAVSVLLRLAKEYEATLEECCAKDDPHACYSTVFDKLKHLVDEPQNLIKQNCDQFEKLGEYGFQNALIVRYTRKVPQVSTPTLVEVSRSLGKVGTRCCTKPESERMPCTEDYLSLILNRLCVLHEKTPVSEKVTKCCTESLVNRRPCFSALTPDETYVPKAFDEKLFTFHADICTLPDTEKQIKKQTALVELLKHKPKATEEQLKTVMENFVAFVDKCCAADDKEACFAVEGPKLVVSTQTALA

| KA (×10^4 M^-1) | Compound |
| --- | --- |
| 0.61 ×10^4 M^−1 | CCCCNCc1cc(C)c(O)c(-c2nc3ccccc3o2)c1 [compound 12, benzazole 12] |
| 0.74 ×10^4 M^−1 | CCCCCCCCCCCCNCc1cc(C)c(O)c(-c2nc3ccccc3o2)c1 [compound 13, benzazole 13] |
| 0.59 ×10^4 M^−1 | CCCCCCCCCCCCCCCCCCNCc1cc(C)c(O)c(-c2nc3ccccc3o2)c1 [compound 14, benzazole 14] |
| 0.73 ×10^4 M^−1 | CCCCNCc1cc(C)c(O)c(-c2nc3ccccc3s2)c1 [compound 15, benzazole 15] |
| 0.79 ×10^4 M^−1 | CCCCCCCCCCCCNCc1cc(C)c(O)c(-c2nc3ccccc3s2)c1 [compound 16, benzazole 16] |
| 0.69 ×10^4 M^−1 | CCCCCCCCCCCCCCCCCCNCc1cc(C)c(O)c(-c2nc3ccccc3s2)c1 [compound 17, benzazole 17] |
